Experimental findings from ChEMBL document CHEMBL4371083, “Synthesis, biological evaluation and 3D-QSAR studies of 1,2,4-triazole-5-substituted carboxylic acid bioisosteres as uric acid transporter 1 (URAT1) inhibitors for the treatment of hyperuricemia associated with gout” (Bioorg Med Chem Lett, 2019) are described below.

pIC50: −log10 of the molar value.

The experiment has as its target T1, Solute carrier family 22 member 12 (Homo sapiens, UniProt Q96S37).
T1 sequence (Q96S37 whole entry): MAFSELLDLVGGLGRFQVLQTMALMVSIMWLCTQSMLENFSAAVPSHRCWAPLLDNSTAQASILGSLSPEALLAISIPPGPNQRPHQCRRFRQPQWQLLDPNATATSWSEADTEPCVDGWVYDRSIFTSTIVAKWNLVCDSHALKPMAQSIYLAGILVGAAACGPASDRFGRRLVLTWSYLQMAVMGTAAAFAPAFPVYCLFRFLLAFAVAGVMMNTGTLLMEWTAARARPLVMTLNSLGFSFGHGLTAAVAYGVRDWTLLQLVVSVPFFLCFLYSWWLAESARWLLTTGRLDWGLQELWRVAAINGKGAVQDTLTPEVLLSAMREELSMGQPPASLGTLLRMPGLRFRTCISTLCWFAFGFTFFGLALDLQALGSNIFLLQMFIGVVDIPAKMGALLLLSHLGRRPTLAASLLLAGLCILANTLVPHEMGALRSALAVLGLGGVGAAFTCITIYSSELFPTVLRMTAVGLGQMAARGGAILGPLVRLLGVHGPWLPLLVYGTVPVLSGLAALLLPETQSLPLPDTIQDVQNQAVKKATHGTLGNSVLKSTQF
In words: Inhibition of human URAT1 expressed in HEK293 cells assessed as reduction in [8-14C]uric acid uptake. The format is cell-based.
As for `O=S(=O)(CSc1nnc(Br)n1Cc1ccc(Br)c2ccccc12)Nc1ccc(C(F)(F)F)nc1`, the pIC50 is 4.99.

As to `O=S(=O)(CSc1nnc(Br)n1Cc1ccc(Br)c2ccccc12)Nc1ccc(Cl)nc1Cl`, the pIC50 is 5.78.

In the case of `O=S(=O)(CSc1nnc(Br)n1Cc1ccc(Br)c2ccccc12)Nc1ccc(F)nc1`, the pIC50 was 5.81.

Turning to `O=S(=O)(CSc1nnc(Br)n1Cc1ccc(Br)c2ccccc12)Nc1cccnc1Br`, the pIC50 is 6.55.

On to `NS(=O)(=O)CSc1nnc(Br)n1Cc1ccc(Br)c2ccccc12`, for which the pIC50 was 3.44.

For `O=S(=O)(CSc1nnc(Br)n1Cc1ccc(Br)c2ccccc12)Nc1cccnc1Cl`, the pIC50 is 5.29.

For `O=C(CSc1nnc(Br)n1Cc1ccc(Br)c2ccccc12)NO`, the pIC50 is 6.19.

For `O=S(=O)(CSc1nnc(Br)n1Cc1ccc(Br)c2ccccc12)Nc1ccc(Br)nc1Br`, the pIC50 is 5.27.

For the compound `O=S(=O)(CSc1nnc(Br)n1Cc1ccc(Br)c2ccccc12)Nc1cncc(C(F)(F)F)c1`, the pIC50 is 5.20.

Turning to `O=S(=O)(CSc1nnc(Br)n1Cc1ccc(Br)c2ccccc12)Nc1ccccc1`, the pIC50 is 4.80.

For the compound `O=S(=O)(CSc1nnc(Br)n1Cc1ccc(Br)c2ccccc12)Nc1cccnc1`, the pIC50 was 7.49.

Take `O=S(=O)(CSc1nnc(Br)n1Cc1ccc(Br)c2ccccc12)Nc1cnccc1I`: the pIC50 was 4.98.

As for `O=S(=O)(CSc1nnc(Br)n1Cc1ccc(Br)c2ccccc12)Nc1ccc(Br)nc1`, the pIC50 was 5.66.

In the case of `O=S(=O)(CSc1nnc(Br)n1Cc1ccc(Br)c2ccccc12)Nc1cc(Cl)cnc1Cl`, the pIC50 was 5.55.

For `Brc1ccc(Cn2c(Br)nnc2SCc2nnn[nH]2)c2ccccc12`, the pIC50 is 5.49.

Take `O=S(=O)(O)CSc1nnc(Br)n1Cc1ccc(Br)c2ccccc12`: the pIC50 is 4.84.

With `COc1ncccc1NS(=O)(=O)CSc1nnc(Br)n1Cc1ccc(Br)c2ccccc12`, the pIC50 is 5.39.

For `O=S(=O)(CSc1nnc(Br)n1Cc1ccc(Br)c2ccccc12)Nc1ccc(Cl)nc1`, the pIC50 was 5.71.

In the case of `Oc1c(Br)cc(CSc2nnc(Br)n2Cc2ccc(Br)c3ccccc23)cc1Br`, the pIC50 was 3.92.
